According to PMC10339456, “Exploring the 5-Substituted 2-Aminobenzothiazole-Based DNA Gyrase B Inhibitors Active against ESKAPE Pathogens” (ACS Omega, 2023):
Read-outs that look alike come from different tables or passages of the source.

Columns and labels:
A. baumannii ATCC17978 [1] = test system: A. baumannii ATCC17978; parameters: method as in PMID 33524686; conditions: cited from earlier work
K. pneumoniae ATCC10031 [2] = test system: K. pneumoniae ATCC10031; parameters: method as in PMID 33524686; conditions: cited from earlier work
E. coli Topo IV [3] = molecular target: T1, E. coli Topo IV (Escherichia coli, UniProt P20083); parameters: method as in PMID 33524686; conditions: relaxation; compound previously prepared and tested; cited from earlier work
T1 construct: purchased Inspiralis Limited, Norwich, UK
T1 sequence (P20083 whole entry): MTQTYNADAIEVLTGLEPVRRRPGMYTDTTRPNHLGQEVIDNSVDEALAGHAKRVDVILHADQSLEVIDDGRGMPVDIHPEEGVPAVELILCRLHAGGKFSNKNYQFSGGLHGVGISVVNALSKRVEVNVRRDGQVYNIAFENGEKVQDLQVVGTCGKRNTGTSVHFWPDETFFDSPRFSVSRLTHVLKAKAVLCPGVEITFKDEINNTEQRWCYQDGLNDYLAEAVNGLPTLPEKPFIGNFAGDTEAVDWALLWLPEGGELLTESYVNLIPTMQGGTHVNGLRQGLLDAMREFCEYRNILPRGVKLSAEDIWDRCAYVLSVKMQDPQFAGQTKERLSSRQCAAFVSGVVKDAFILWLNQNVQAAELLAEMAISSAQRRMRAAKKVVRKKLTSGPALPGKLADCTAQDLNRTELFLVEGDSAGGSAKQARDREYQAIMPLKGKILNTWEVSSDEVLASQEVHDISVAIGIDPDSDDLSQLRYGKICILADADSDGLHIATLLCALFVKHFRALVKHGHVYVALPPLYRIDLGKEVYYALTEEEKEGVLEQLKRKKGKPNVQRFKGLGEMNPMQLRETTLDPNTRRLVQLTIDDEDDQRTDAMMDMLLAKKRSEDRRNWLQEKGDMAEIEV
T1 sequence (P0AFI2 whole entry, further chain): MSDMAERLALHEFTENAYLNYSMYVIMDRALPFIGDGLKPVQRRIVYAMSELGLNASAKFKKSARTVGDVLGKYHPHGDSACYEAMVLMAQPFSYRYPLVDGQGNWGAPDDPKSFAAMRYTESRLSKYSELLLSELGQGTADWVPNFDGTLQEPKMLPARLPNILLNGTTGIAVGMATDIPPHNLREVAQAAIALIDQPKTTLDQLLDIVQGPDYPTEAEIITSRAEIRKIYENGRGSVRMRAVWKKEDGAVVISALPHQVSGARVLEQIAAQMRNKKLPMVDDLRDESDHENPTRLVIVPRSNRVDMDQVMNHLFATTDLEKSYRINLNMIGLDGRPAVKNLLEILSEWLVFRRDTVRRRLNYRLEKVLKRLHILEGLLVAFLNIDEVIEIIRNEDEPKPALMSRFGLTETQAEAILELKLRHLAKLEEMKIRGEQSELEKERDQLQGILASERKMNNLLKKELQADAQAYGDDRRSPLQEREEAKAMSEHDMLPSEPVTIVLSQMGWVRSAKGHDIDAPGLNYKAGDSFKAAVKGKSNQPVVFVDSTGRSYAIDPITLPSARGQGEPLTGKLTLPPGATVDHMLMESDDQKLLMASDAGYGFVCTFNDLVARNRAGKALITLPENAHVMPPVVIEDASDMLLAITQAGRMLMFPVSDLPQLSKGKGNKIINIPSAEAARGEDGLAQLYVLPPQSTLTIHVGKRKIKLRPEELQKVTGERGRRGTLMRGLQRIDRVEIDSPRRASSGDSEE

Gram-negative strains [4] = test system: Gram-negative strains; parameters: method as in PMID 33524686; conditions: cited from earlier work
P. aeruginosa ATCC27853 [5] = test system: P. aeruginosa ATCC27853; parameters: method as in PMID 33524686; conditions: cited from earlier work
E. coli gyrase [6] = molecular target: T2, E. coli gyrase (Escherichia coli, UniProt P0AES6); parameters: method as in PMID 33524686; conditions: supercoiling; compound previously prepared and tested; cited from earlier work
T2 construct: purchased Inspiralis Limited, Norwich, UK

E. coli ATCC25922 [7] = test system: E. coli ATCC25922; parameters: method as in PMID 33524686; conditions: cited from earlier work
S. aureus ATCC29213 [8] = test system: S. aureus ATCC29213; parameters: method as in PMID 33524686; conditions: cited from earlier work
[9] = test system: S. aureus (MRSA) ATCC43300; parameters: method as in PMID 33524686; conditions: cited from earlier work
[10] = test system: S. aureus (MRSA) ATCC43300; assay: MIC, broth microdilution (CLSI); type: cell-based; conditions: Staphylococcus aureus
Experimental: (§1) Antimicrobial assays (MICs) were performed by a standard serial broth microdilution method. For details on antimicrobial assays, see the Supporting Information.

K. pneumoniae ATCC10031 [11] = assay: MIC, broth microdilution (CLSI); type: cell-based; conditions: Klebsiella pneumoniae
Experimental: as §1

[12] = test system: Enterobacter cloacae ATCC13047; assay: MIC, broth microdilution (CLSI); type: cell-based
Experimental: as §1

A. baumannii ATCC17978 [13] = assay: MIC, broth microdilution (CLSI); type: cell-based; conditions: Acinetobacter baumannii
Experimental: as §1

E. coli ATCC25922 [14] = assay: MIC, broth microdilution (CLSI); type: cell-based; conditions: Escherichia coli
Experimental: as §1

S. aureus ATCC29213 [15] = assay: MIC, broth microdilution (CLSI); type: cell-based; conditions: Staphylococcus aureus
Experimental: as §1

P. aeruginosa ATCC27853 [16] = assay: MIC, broth microdilution (CLSI); type: cell-based; conditions: Pseudomonas aeruginosa
Experimental: as §1

Gram-negative strains [17] = assay: MIC, summary in text over Gram-negative strains; type: cell-based; conditions: for MIC: read-out: MIC against Gram-negative strains (no activity); for MIC range against Gram-negative strains: E. coli, A. baumannii, P. aeruginosa, and K. pneumoniae
Experimental: (§2) To evaluate selectivity against a related human target, compounds D and E were tested for their inhibitory activity on human topoisomerase IIα.
as §1

E. coli gyrase [18] = molecular target: T2, E. coli gyrase; assay: DNA gyrase supercoiling assay (Inspiralis kit); type: biochemical; conditions: mean ± SD of three independent experiments
Experimental: (§3) Compounds B, C, D, and E were evaluated against DNA gyrase from E. coli supercoiling and against Topo IV in relaxation assay. The results are presented in Table 1 and Figure S5 as concentrations of compounds that inhibit the enzyme activity by 50% (IC50 values). […] Compounds B, C, D, and E were tested for antibacterial activity against Gram-positive and Gram-negative bacteria, including ESKAPE pathogens.
(§4) Commercially available assay kits (Inspiralis Limited, Norwich, UK) were used for the determination of IC50 values for test compounds for inhibition of DNA gyrase supercoiling and Topo IV and TopoIIα relaxation. Assays were performed according to previously reported procedures.[25] For details on enzyme assays, see the Supporting Information.

E. coli Topo IV [19] = molecular target: T1, E. coli Topo IV; assay: Topo IV relaxation assay (Inspiralis kit); type: biochemical
Experimental: as §3, §4

human topoisomerase IIα = molecular target: T3, human topoisomerase IIα (Homo sapiens, UniProt P11388); assay: Human topoisomerase IIα relaxation assay (selectivity); type: biochemical; conditions: read-out: enzyme residual activity human topoisomerase IIα
T3 construct: purchased Inspiralis Limited, Norwich, UK
T3 sequence (P11388 whole entry): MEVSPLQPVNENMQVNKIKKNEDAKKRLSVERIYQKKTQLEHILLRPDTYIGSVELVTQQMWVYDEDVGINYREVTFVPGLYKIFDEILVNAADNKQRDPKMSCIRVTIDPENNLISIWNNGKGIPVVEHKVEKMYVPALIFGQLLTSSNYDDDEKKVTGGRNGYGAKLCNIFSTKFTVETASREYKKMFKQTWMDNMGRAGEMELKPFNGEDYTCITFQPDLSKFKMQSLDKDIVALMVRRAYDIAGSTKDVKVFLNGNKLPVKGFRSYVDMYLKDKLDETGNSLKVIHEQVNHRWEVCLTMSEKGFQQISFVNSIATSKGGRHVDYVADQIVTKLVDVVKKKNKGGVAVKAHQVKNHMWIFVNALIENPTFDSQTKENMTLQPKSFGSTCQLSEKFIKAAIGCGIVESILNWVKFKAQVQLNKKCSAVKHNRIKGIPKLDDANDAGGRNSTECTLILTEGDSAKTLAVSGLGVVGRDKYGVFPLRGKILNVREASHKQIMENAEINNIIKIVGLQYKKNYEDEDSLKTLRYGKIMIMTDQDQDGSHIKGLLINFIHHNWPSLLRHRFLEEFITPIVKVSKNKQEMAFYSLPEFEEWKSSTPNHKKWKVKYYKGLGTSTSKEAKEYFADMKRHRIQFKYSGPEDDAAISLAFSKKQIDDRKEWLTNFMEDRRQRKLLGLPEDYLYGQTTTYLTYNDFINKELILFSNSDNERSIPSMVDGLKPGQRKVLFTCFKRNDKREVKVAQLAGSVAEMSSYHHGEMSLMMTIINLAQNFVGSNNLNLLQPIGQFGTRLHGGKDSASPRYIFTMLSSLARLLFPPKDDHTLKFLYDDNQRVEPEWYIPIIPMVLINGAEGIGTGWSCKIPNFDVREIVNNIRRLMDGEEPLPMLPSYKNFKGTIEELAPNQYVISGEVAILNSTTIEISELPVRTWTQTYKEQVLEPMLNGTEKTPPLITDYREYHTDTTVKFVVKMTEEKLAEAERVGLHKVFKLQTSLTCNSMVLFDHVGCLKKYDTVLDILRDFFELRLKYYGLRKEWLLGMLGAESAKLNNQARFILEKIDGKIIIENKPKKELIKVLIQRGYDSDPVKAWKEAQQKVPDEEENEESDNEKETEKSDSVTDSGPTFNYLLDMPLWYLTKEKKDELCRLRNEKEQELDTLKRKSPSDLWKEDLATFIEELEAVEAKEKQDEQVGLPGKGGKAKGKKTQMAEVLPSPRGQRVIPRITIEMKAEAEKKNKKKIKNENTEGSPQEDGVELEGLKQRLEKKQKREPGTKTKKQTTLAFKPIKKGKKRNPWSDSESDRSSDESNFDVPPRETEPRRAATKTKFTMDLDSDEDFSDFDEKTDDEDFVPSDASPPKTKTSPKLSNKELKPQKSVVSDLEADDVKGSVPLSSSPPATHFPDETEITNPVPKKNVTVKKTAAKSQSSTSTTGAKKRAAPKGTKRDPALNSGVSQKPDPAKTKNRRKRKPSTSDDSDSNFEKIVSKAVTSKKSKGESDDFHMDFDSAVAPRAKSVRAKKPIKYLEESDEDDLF
Experimental: as §2, §4

[20] = test system: Gram-positives S. aureus, MRSA, VISA, and E. faecium; assay: MIC, summary over Gram-positive strains; type: cell-based; conditions: most strains
Experimental: as §2, §1

E. faecium ATCC700221 = assay: MIC, broth microdilution (CLSI); type: cell-based; conditions: Enterococcus faecium
Experimental: as §1

[21] = test system: S. aureus (VISA) ATCC700699; assay: MIC, broth microdilution (CLSI); type: cell-based; conditions: Staphylococcus aureus
Experimental: as §1

[22] = mean ± SD of three independent experiments, read-out: IC50 E. coli Topo IV

Cc1[nH]c(C(=O)Nc2nc3cc(O)c(C(=O)O)cc3s2)c(Cl)c1Cl [Compound A]
MIC A. baumannii ATCC17978 (A. baumannii ATCC17978 [1]; first value of cell): > 64 µg/mL
MIC A. baumannii ATCC17978 (A. baumannii ATCC17978 [1]; second value of cell): > 166 µM
MIC K. pneumoniae ATCC10031 (K. pneumoniae ATCC10031 [2]; first value of cell): 8 µg/mL
MIC K. pneumoniae ATCC10031 (K. pneumoniae ATCC10031 [2]; second value of cell): 21 µM
IC50 (E. coli Topo IV [3]): 0.095 µM
MIC against Gram-negative bacterial strains (inactive) (Gram-negative strains [4]): > 64 µg/mL
MIC P. aeruginosa ATCC27853 (P. aeruginosa ATCC27853 [5]; first value of cell): > 64 µg/mL
MIC P. aeruginosa ATCC27853 (P. aeruginosa ATCC27853 [5]; second value of cell): > 166 µM
IC50 (E. coli gyrase [6]): < 0.01 µM
MIC E. coli ATCC25922 (E. coli ATCC25922 [7]; first value of cell): > 64 µg/mL
MIC E. coli ATCC25922 (E. coli ATCC25922 [7]; second value of cell): > 166 µM
MIC S. aureus ATCC29213 (S. aureus ATCC29213 [8]; first value of cell): 16 µg/mL
MIC S. aureus ATCC29213 (S. aureus ATCC29213 [8]; second value of cell): 41 µM
MIC S. aureus (MRSA) ATCC43300 ([9]; first value of cell): 4 µg/mL
MIC S. aureus (MRSA) ATCC43300 ([9]; second value of cell): 10 µM

Cc1[nH]c(C(=O)Nc2nc3c(C)c(F)c(C(=O)O)cc3s2)c(Cl)c1Cl [Compound B]
MIC ([10]; first value of cell): 0.25 µg/mL
MIC ([10]; second value of cell): 0.6 µM
MIC (K. pneumoniae ATCC10031 [11]; first value of cell): > 64 µg/mL
MIC (K. pneumoniae ATCC10031 [11]; second value of cell): > 159 µM
MIC ([12]; first value of cell): > 64 µg/mL
MIC ([12]; second value of cell): > 159 µM
MIC (A. baumannii ATCC17978 [13]; first value of cell): > 64 µg/mL
MIC (A. baumannii ATCC17978 [13]; second value of cell): > 159 µM
MIC (E. coli ATCC25922 [14]; first value of cell): > 64 µg/mL
MIC (E. coli ATCC25922 [14]; second value of cell): > 159 µM
MIC (S. aureus ATCC29213 [15]; first value of cell): 0.5 µg/mL
MIC (S. aureus ATCC29213 [15]; second value of cell): 1.2 µM
MIC (P. aeruginosa ATCC27853 [16]; first value of cell): > 64 µg/mL
MIC (P. aeruginosa ATCC27853 [16]; second value of cell): > 159 µM
MIC (Gram-negative strains [17]): > 64 µg/mL
IC50 (E. coli gyrase [18]): 0.04 µM
IC50 (E. coli Topo IV [19]; [22]): 2 ± 0.9 µM

CC(=O)N(Cc1ccccc1)c1cc2nc(NC(=O)c3[nH]c(C)c(Cl)c3Cl)sc2cc1C(=O)O [Compound C]
MIC ([10]; first value of cell): 8 µg/mL
MIC ([10]; second value of cell): 16 µM
MIC (K. pneumoniae ATCC10031 [11]; first value of cell): 64 µg/mL
MIC (K. pneumoniae ATCC10031 [11]; second value of cell): 124 µM
MIC ([12]; first value of cell): > 64 µg/mL
MIC ([12]; second value of cell): > 124 µM
MIC (A. baumannii ATCC17978 [13]; first value of cell): > 64 µg/mL
MIC (A. baumannii ATCC17978 [13]; second value of cell): > 124 µM
MIC (E. coli ATCC25922 [14]; first value of cell): > 64 µg/mL
MIC (E. coli ATCC25922 [14]; second value of cell): > 124 µM
MIC (S. aureus ATCC29213 [15]; first value of cell): 8 µg/mL
MIC (S. aureus ATCC29213 [15]; second value of cell): 16 µM
MIC (P. aeruginosa ATCC27853 [16]; first value of cell): > 64 µg/mL
MIC (P. aeruginosa ATCC27853 [16]; second value of cell): > 124 µM
MIC (Gram-negative strains [17]): > 64 µg/mL
IC50 (E. coli gyrase [18]): 0.071 µM
IC50 (E. coli Topo IV [19]; E. coli, read-out: IC50 Topo IV): 4 µM

Cc1[nH]c(C(=O)Nc2nc3cc(NCc4ccccc4)c(C(=O)O)cc3s2)c(Cl)c1Cl [Compound D]
remaining activity at 100 µM (human topoisomerase IIα): 100%
MIC [20]: < 0.03 µg/mL
MIC ([10]; first value of cell): < 0.03 µg/mL
MIC ([10]; second value of cell): < 0.07 µM
MIC (K. pneumoniae ATCC10031 [11]; first value of cell): 4 µg/mL
MIC (K. pneumoniae ATCC10031 [11]; second value of cell): 8.4 µM
MIC ([12]; first value of cell): > 64 µg/mL
MIC ([12]; second value of cell): > 135 µM
MIC (E. faecium ATCC700221; first value of cell): < 0.13 µg/mL
MIC (E. faecium ATCC700221; second value of cell): < 0.26 µM
MIC (A. baumannii ATCC17978 [13]; first value of cell): 8 µg/mL
MIC (A. baumannii ATCC17978 [13]; second value of cell): 17 µM
MIC (E. coli ATCC25922 [14]; first value of cell): 16 µg/mL
MIC (E. coli ATCC25922 [14]; second value of cell): 34 µM
MIC ([21]; first value of cell): < 0.03 µg/mL
MIC ([21]; second value of cell): < 0.07 µM
MIC (S. aureus ATCC29213 [15]; first value of cell): < 0.03 µg/mL
MIC (S. aureus ATCC29213 [15]; second value of cell): < 0.07 µM
MIC (P. aeruginosa ATCC27853 [16]; first value of cell): 8 µg/mL
MIC (P. aeruginosa ATCC27853 [16]; second value of cell): 17 µM
MIC range against Gram-negative strains (Gram-negative strains [17]): 4 to 16 µg/mL
IC50 (E. coli gyrase [18]): < 0.01 µM
IC50 (E. coli Topo IV [19]; [22]): 0.293 ± 0.155 µM

COCCCNc1cc2nc(NC(=O)c3[nH]c(C)c(Cl)c3Cl)sc2cc1C(=O)O [Compound E]
remaining activity at 100 µM (human topoisomerase IIα): 55%
MIC [20]: < 0.03 µg/mL
MIC ([10]; first value of cell): < 0.03 µg/mL
MIC ([10]; second value of cell): < 0.07 µM
MIC (K. pneumoniae ATCC10031 [11]; first value of cell): 4 µg/mL
MIC (K. pneumoniae ATCC10031 [11]; second value of cell): 9 µM
MIC ([12]; first value of cell): > 64 µg/mL
MIC ([12]; second value of cell): > 140 µM
MIC (E. faecium ATCC700221; first value of cell): < 0.06 µg/mL
MIC (E. faecium ATCC700221; second value of cell): < 0.14 µM
MIC (A. baumannii ATCC17978 [13]; first value of cell): 4 µg/mL
MIC (A. baumannii ATCC17978 [13]; second value of cell): 9 µM
MIC (E. coli ATCC25922 [14]; first value of cell): 8 µg/mL
MIC (E. coli ATCC25922 [14]; second value of cell): 18 µM
MIC ([21]; first value of cell): < 0.03 µg/mL
MIC ([21]; second value of cell): < 0.07 µM
MIC (S. aureus ATCC29213 [15]; first value of cell): < 0.03 µg/mL
MIC (S. aureus ATCC29213 [15]; second value of cell): < 0.07 µM
MIC (P. aeruginosa ATCC27853 [16]; first value of cell): 16 µg/mL
MIC (P. aeruginosa ATCC27853 [16]; second value of cell): 35 µM
MIC range against Gram-negative strains (Gram-negative strains [17]): 4 to 16 µg/mL
IC50 (E. coli gyrase [18]): < 0.01 µM
IC50 (E. coli Topo IV [19]; [22]): 0.21 µM
